Experimental data: patent US9023821B2, “Use of MicroRNA for treating diseases associated with a dysfunction of the cilia in multiciliated epithelial cells” (Centre National de la Recherche Scientifique, priority 2009, dated 2015)

Assays:
[1] = tested on: human airway epithelial cells (HAECs); assay: High-throughput sequencing (HTS) of miRNAs at four stages of differentiation of HAECs; conditions: for Modulation (ratio of the level of intensity of expression in log2 in two stages of differentiation) measured by high-throughput sequencing, D7 − D0 / Modulation (ratio of the level of intensity of expression in log2 in two stages of differentiation) measured by high-throughput sequencing, FC − D7 / Modulation (ratio of the level of intensity of expression in log2 in two stages of differentiation) measured by high-throughput sequencing, WD − D0 / Modulation (ratio of the level of intensity of expression in log2 in two stages of differentiation) measured by high-throughput sequencing, WD − FC / Level of intensity of expression in log2 measured by high-throughput sequencing, D0 / Level of intensity of expression in log2 measured by high-throughput sequencing, D7 / Level of intensity of expression in log2 measured by high-throughput sequencing, FC / Level of intensity of expression in log2 measured by high-throughput sequencing, WD: Table VI; for Level of intensity of expression in log2 At the differentiated stage (WD) measured in HTS: healthy human airway epithelial tissue; for Level of intensity of expression in log2 measured by high-throughput sequencing, D0: stage D0; for Level of intensity of expression in log2 measured by high-throughput sequencing, D7: stage D7; for Level of intensity of expression in log2 measured by high-throughput sequencing, FC: stage FC; for Level of intensity of expression in log2 At the differentiated stage (WD) measured in HTS / Level of intensity of expression in log2 measured by high-throughput sequencing, WD: stage WD; for Modulation (ratio of the level of intensity of expression in log2 in two stages of differentiation), D7 − D0 / Modulation (ratio of the level of intensity of expression in log2 in two stages of differentiation), FC − D7 / Modulation (ratio of the level of intensity of expression in log2 in two stages of differentiation), WD − FC / Abundance (%), D0 / Abundance (%), D7 / Abundance (%), FC / Abundance (%), WD: HTS; for Abundance (%), D0: ALI-D0; for Abundance (%), D7: ALI-D7; for Abundance (%), FC: ALI-FC; for Abundance (%), WD: ALI-WD
In short: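 ALI cultures sampled at day 0, day 7, first-cilia stage (~14 d) and full differentiation (~21 d). Trizol lysis, column purification retaining small RNAs. Adaptor ligation, RT at 42° C for 30 min, PCR, gel selection of ~105-150 base products.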

[2] = tested on: human airway epithelial cells (HAECs); assay: Agilent miRNA chips, miRNA expression at four stages of differentiation of HAECs; conditions: for Modulation (ratio of the level of intensity of expression in log2 in two stages of differentiation) measured with the Agilent chips, D7 − D0 / Modulation (ratio of the level of intensity of expression in log2 in two stages of differentiation) measured with the Agilent chips, FC − D7 / Modulation (ratio of the level of intensity of expression in log2 in two stages of differentiation) measured with the Agilent chips, WD − D0 / Modulation (ratio of the level of intensity of expression in log2 in two stages of differentiation) measured with the Agilent chips, WD − FC / Level of intensity of expression in log2 measured with the Agilent chips, D0 / Level of intensity of expression in log2 measured with the Agilent chips, D7 / Level of intensity of expression in log2 measured with the Agilent chips, FC / Level of intensity of expression in log2 measured with the Agilent chips, WD: Table VI; for Modulation (ratio of the level of intensity of expression in log2 at two stages of differentiation), FC − D7 / Modulation (ratio of the level of intensity of expression in log2 at two stages of differentiation), WD − FC: Agilent miRNA chips, Table V; for Level of intensity of expression in log2 measured with the Agilent chips, D0: stage D0; for Level of intensity of expression in log2 measured with the Agilent chips, D7: stage D7; for Level of intensity of expression in log2 measured with the Agilent chips, FC: stage FC; for Level of intensity of expression in log2 measured with the Agilent chips, WD: stage WD
In short: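 Patient RNA samples, the same ones analysed by high-throughput sequencing, were first labelled, then hybridized onto arrays carrying 866 human and 89 human viral miRNAs (miRBase v.12.0), following the supplied labelling and hybridization protocol.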

[3] = tested on: basal cells and pyramidal cells of the airway epithelium; assay: miRNA expression in sorted basal cells versus pyramidal cells (ciliated + secretory), HTS and Agilent chips; set-up: species or system human; conditions: for Modulation of expression of the miRNAs in pyramidal cells (323(−)) relative to basal cells 323(+): HTS and Agilent chips; for Intensity of the level of expression in log2 in pyramidal cells (323(−)): pyramidal cells (ciliated + secretory)
In short: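 FACS on CD151 and tissue factor: double-positive = basal, double-negative = ciliated + mucus cells; DAPI, doublets, aggregates excluded; sort at 5000 events/s. Purity checked by cytometry/immunocytochemistry. miRNA by Agilent array or HTS on total RNA. Source: nasal polyps/conchae, 3 donors.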

| Substance | Modulation (ratio of the level of intensity of expression in log2 in two stages of differentiation) measured by high-throughput sequencing, D7 − D0 [1] [log2] | Modulation (ratio of the level of intensity of expression in log2 in two stages of differentiation) measured by high-throughput sequencing, FC − D7 [1] [log2] | Modulation (ratio of the level of intensity of expression in log2 in two stages of differentiation) measured by high-throughput sequencing, WD − D0 [1] [log2] | Modulation (ratio of the level of intensity of expression in log2 in two stages of differentiation) measured by high-throughput sequencing, WD − FC [1] [log2] | Level of intensity of expression in log2 At the differentiated stage (WD) measured in HTS [1] [log2] | Level of intensity of expression in log2 measured by high-throughput sequencing, D0 [1] [log2] | Level of intensity of expression in log2 measured by high-throughput sequencing, D7 [1] [log2] | Level of intensity of expression in log2 measured by high-throughput sequencing, FC [1] [log2] | Level of intensity of expression in log2 measured by high-throughput sequencing, WD [1] [log2] | Modulation (ratio of the level of intensity of expression in log2 in two stages of differentiation) measured with the Agilent chips, D7 − D0 [2] [log2] | Modulation (ratio of the level of intensity of expression in log2 in two stages of differentiation) measured with the Agilent chips, FC − D7 [2] [log2] | Modulation (ratio of the level of intensity of expression in log2 in two stages of differentiation) measured with the Agilent chips, WD − D0 [2] [log2] | Modulation (ratio of the level of intensity of expression in log2 in two stages of differentiation) measured with the Agilent chips, WD − FC [2] [log2] | Level of intensity of expression in log2 measured with the Agilent chips, D0 [2] [log2] | Level of intensity of expression in log2 measured with the Agilent chips, D7 [2] [log2] | Level of intensity of expression in log2 measured with the Agilent chips, FC [2] [log2] | Level of intensity of expression in log2 measured with the Agilent chips, WD [2] [log2] | Modulation of expression of the miRNAs in pyramidal cells (323(−)) relative to basal cells 323(+) [3] | Intensity of the level of expression in log2 in basal cells (323(+)) [3] [log2] | Intensity of the level of expression in log2 in pyramidal cells (323(−)) [3] [log2] | also measured |
| --- | --- | --- | --- | --- | --- | --- | --- | --- | --- | --- | --- | --- | --- | --- | --- | --- | --- | --- | --- | --- | --- |
| hsa-miR-425: human miRNA, SEQ ID No. 44 (AAUGACACGAUCACUCCCGUUGA; expressed or natural sequence; listed as Homo sapiens) | 0.42 | 0.74 | 1.12 | −0.04 | 9.53 | 10.58 | 11.01 | 11.75 | 11.70 | 1.59 | 0.19 | 1.57 | −0.21 | 6.61 | 8.21 | 8.39 | 8.18 | 0.70 | 4.52 | 5.22 | Modulation (ratio of the level of intensity of expression in log2 at two stages of differentiation), FC − D7 [2]: 0.19 log2; Modulation (ratio of the level of intensity of expression in log2 at two stages of differentiation), WD − FC [2]: −0.21 log2 |
| hsa-miR-429: human miRNA, SEQ ID No. 45 (UAAUACUGUCUGGUAAAACCGU; expressed or natural sequence; listed as Homo sapiens) | 0.42 | 0.14 | 1.30 | 0.74 | 15.11 | 8.23 | 8.65 | 8.79 | 9.53 | 1.71 | 0.14 | 1.95 | 0.10 | 7.97 | 9.68 | 9.82 | 9.93 | −0.31 | 6.92 | 6.61 | Modulation (ratio of the level of intensity of expression in log2 at two stages of differentiation), FC − D7 [2]: 0.14 log2; Modulation (ratio of the level of intensity of expression in log2 at two stages of differentiation), WD − FC [2]: 0.10 log2 |
| hsa-miR-449a: human miRNA, SEQ ID No. 46 (UGGCAGUGUAUUGUUAGCUGGU; expressed or natural sequence; listed as Homo sapiens) | 5.21 | 5.21 | 10.63 | 0.21 | 12.24 | 4.48 | 9.69 | 14.90 | 15.11 | 6.53 | 5.70 | 12.08 | −0.15 | 1.47 | 8.00 | 13.70 | 13.54 | 6.07 | 2.81 | 8.88 | Modulation (ratio of the level of intensity of expression in log2 in two stages of differentiation), D7 − D0 [1]: 5.21 log2; Modulation (ratio of the level of intensity of expression in log2 in two stages of differentiation), FC − D7 [1]: 5.21 log2; Modulation (ratio of the level of intensity of expression in log2 in two stages of differentiation), WD − FC [1]: 0.21 log2; Abundance (%), D0 [1]: 0.00%; Abundance (%), D7 [1]: 0.18%; Abundance (%), FC [1]: 6.49%; Abundance (%), WD [1]: 5.70%; Modulation (ratio of the level of intensity of expression in log2 at two stages of differentiation), FC − D7 [2]: 5.70 log2; Modulation (ratio of the level of intensity of expression in log2 at two stages of differentiation), WD − FC [2]: −0.15 log2 |
| hsa-miR-574-3p: human miRNA, SEQ ID No. 48 (CACGCUCAUGCACACACCCACA; expressed or natural sequence; listed as Homo sapiens) | 0.48 | 0.12 | 0.92 | 0.32 | 13.42 | 13.64 | 14.12 | 14.24 | 14.56 | 1.69 | −0.46 | 1.04 | −0.18 | 4.73 | 6.42 | 5.96 | 5.77 | 0.91 | 3.53 | 4.44 | Modulation (ratio of the level of intensity of expression in log2 in two stages of differentiation), D7 − D0 [1]: 0.48 log2; Modulation (ratio of the level of intensity of expression in log2 in two stages of differentiation), FC − D7 [1]: 0.12 log2; Modulation (ratio of the level of intensity of expression in log2 in two stages of differentiation), WD − FC [1]: 0.32 log2; Abundance (%), D0 [1]: 2.80%; Abundance (%), D7 [1]: 3.92%; Abundance (%), FC [1]: 4.12%; Abundance (%), WD [1]: 3.90% |
